Where two headings read alike, the source gives them in different places.
System: DLD-1 BRCA2−/− cells
Assay: Homologous recombination synthetic lethal inhibition of proliferation, DLD-1 BRCA2-/- (Cell Titre Glo 3D)
Format: cell-based
Conditions: Homo sapiens, read-out: POLQ PD Prolif Lumin (converted)
How it was run: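 Read-out: CellTiter-Glo 3D luminescence, day 7 for wt DLD-1, day 12 for BRCA2−/−, about 8-9 population doublings each. Seeding 1,500 or 3,000 cells/mL respectively. Dose range 10 μM–0.51 nM, 3-fold, 10 points, with re-dosing on day 6. IC50 from curve fit.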

[1] = DLD-1, proliferation, luminescence, taken as DLD-1 BRCA2-/-
[2] = DLD-1, first proliferation column (c5), DLD-1 BRCA2-/-

Cc1ccnc(Cn2c(-c3ccc(OCCN4CC[C@@H](O)C4=O)cc3Cl)nc3c(OC4(C)CC4)ncnc32)c1 [Example T474, (R)-1-(2-(3-chloro-4-(6-(1-methylcyclopropoxy)-9-((4-methylpyridin-2-yl)methyl)-9H-purin-8-yl)phenoxy)ethyl)-3-hydroxypyrrolidin-2-one]
IC50 [1]: 251 nM

Cc1ccnc(Cn2c(-c3ccc(OCC(=O)N4CCOCC4)cc3Cl)nc3c(OC4(C)CC4)ncnc32)c1 [Example T475, 2-(3-chloro-4-(6-(1-methylcyclopropoxy)-9-((4-methylpyridin-2-yl)methyl)-9H-purin-8-yl)phenoxy)-1-morpholinoethan-1-one]
IC50 [1]: 251 nM

Cc1ccnc(Cn2c(-c3ccc(OCC(=O)NC4(C)COC4)cc3Cl)nc3c(OC4(C)CC4)ncnc32)c1 [Example T476, 2-(3-chloro-4-(6-(1-methylcyclopropoxy)-9-((4-methylpyridin-2-yl)methyl)-9H-purin-8-yl)phenoxy)-N-(3-methyloxetan-3-yl)acetamide]
IC50 [1]: 251 nM

Cc1ccnc(Cn2c(-c3ccc(OCC(=O)N4CC(C)(O)C4)cc3Cl)nc3c(OC4(C)CC4)ncnc32)c1 [Example T477, 2-(3-chloro-4-(6-(1-methylcyclopropoxy)-9-((4-methylpyridin-2-yl)methyl)-9H-purin-8-yl)phenoxy)-1-(3-hydroxy-3-methylazetidin-1-yl)ethan-1-one]
IC50 [1]: 1260 nM

Cc1ccnc(Cn2c(-c3ccc(OCC(=O)N[C@@H]4CCOC4)cc3Cl)nc3c(OC4(C)CC4)ncnc32)c1 [Example T478, (R)-2-(3-chloro-4-(6-(1-methylcyclopropoxy)-9-((4-methylpyridin-2-yl)methyl)-9H-purin-8-yl)phenoxy)-N-(tetrahydrofuran-3-yl)acetamide]
IC50 [1]: 501 nM

Cc1ccnc(Cn2c(-c3ccc(OCC(=O)NC4CC(O)C4)cc3Cl)nc3c(OC4(C)CC4)ncnc32)c1 (stereo not shown) [Example T479, 2-(3-chloro-4-(6-(1-methylcyclopropoxy)-9-((4-methylpyridin-2-yl)methyl)-9H-purin-8-yl)phenoxy)-N-(3-hydroxycyclobutyl)acetamide]
IC50 [1]: 398 nM

Cc1ccnc(Cn2c(-c3ccc(OCC(=O)N(C)C4COC4)cc3Cl)nc3c(OC4(C)CC4)ncnc32)c1 [Example T480, 2-(3-chloro-4-(6-(1-methylcyclopropoxy)-9-((4-methylpyridin-2-yl)methyl)-9H-purin-8-yl)phenoxy)-N-methyl-N-(oxetan-3-yl)acetamide]
IC50 [1]: 501 nM

Cc1ccnc(Cn2c(-c3ccc(OCCN4CCOCC4=O)cc3Cl)nc3c(OC4(C)CC4)ncnc32)c1 [Example T481, 4-(2-(3-chloro-4-(6-(1-methylcyclopropoxy)-9-((4-methylpyridin-2-yl)methyl)-9H-purin-8-yl)phenoxy)ethyl)morpholin-3-one]
IC50 [1]: 316 nM

Cc1ccnc(Cn2c(-c3ccc(O[C@H]4CCN(C(=O)CO)C4)cc3Cl)nc3c(OC4(C)CC4)ncnc32)c1 [Example T483, (S)-1-(3-(3-chloro-4-(6-(1-methylcyclopropoxy)-9-((4-methylpyridin-2-yl)methyl)-9H-purin-8-yl)phenoxy)pyrrolidin-1-yl)-2-hydroxyethan-1-one]
IC50 [2]: 631 nM

CC1(Oc2ncnc3c2nc(-c2ccc(OCCN4C[C@H]5C[C@@H]4CN5)cc2Cl)n3Cc2cc(Cl)ccn2)CC1 [Example T485, 8-(4-(2-((1R,4R)-2,5-diazabicyclo[2.2.1]heptan-2-yl)ethoxy)-2-chlorophenyl)-9-((4-chloropyridin-2-yl)methyl)-6-(1-methylcyclopropoxy)-9H-purine]
IC50 [2]: 501 nM

CC1(Oc2ncnc3c2nc(-c2ccc(OCCN4CC5(CCN5)C4)cc2Cl)n3Cc2cc(Cl)ccn2)CC1 [Example T486, 8-(4-(2-(1,6-diazaspiro[3.3]heptan-6-yl)ethoxy)-2-chlorophenyl)-9-((4-chloropyridin-2-yl)methyl)-6-(1-methylcyclopropoxy)-9H-purine]
IC50 [2]: 501 nM

CC1(Oc2ncnc3c2nc(-c2ccc(OCCN4C[C@@H]5C[C@H]4CN5)cc2Cl)n3Cc2cc(Cl)ccn2)CC1 [Example T487, 8-(4-(2-((1S,4S)-2,5-diazabicyclo[2.2.1]heptan-2-yl)ethoxy)-2-chlorophenyl)-9-((4-chloropyridin-2-yl)methyl)-6-(1-methylcyclopropoxy)-9H-purine]
IC50 [2]: 398 nM

Cc1ccnc(Cn2c(-c3ccc(N4CCC5(CNC5)C4)cc3Cl)nc3c(OC4(C)CC4)ncnc32)c1 [Example T490, 8-(2-chloro-4-(2,6-diazaspiro[3.4]octan-6-yl)phenyl)-6-(1-methylcyclopropoxy)-9-((4-methylpyridin-2-yl)methyl)-9H-purine]
IC50 [2]: 2000 nM

Cc1ccnc(Cn2c(-c3ccc(N4CCC5NCCC54)cc3Cl)nc3c(OC4(C)CC4)ncnc32)c1 (stereo not shown) [Example T492, 8-(2-chloro-4-(hexahydropyrrolo[3,2-b]pyrrol-1(2H)-yl)phenyl)-6-(1-methylcyclopropoxy)-9-((4-methylpyridin-2-yl)methyl)-9H-purine]
IC50 [2]: 398 nM

Cc1ccnc(Cn2c(-c3ccc(N4C[C@H]5CCN[C@H]5C4)cc3Cl)nc3c(OC4(C)CC4)ncnc32)c1 [Example T494, 8-(2-chloro-4-((3aR,6aR)-hexahydropyrrolo[3,4-b]pyrrol-5(1H)-yl)phenyl)-6-(1-methylcyclopropoxy)-9-((4-methylpyridin-2-yl)methyl)-9H-purine]
IC50 [2]: 316 nM

CNC(=O)[C@H]1CCN(c2ccc(-c3nc4c(OC5(C)CC5)ncnc4n3Cc3cc(C)ccn3)c(Cl)c2)C1 [Example T497, (S)-1-(3-chloro-4-(6-(1-methylcyclopropoxy)-9-((4-methylpyridin-2-yl)methyl)-9H-purin-8-yl)phenyl)-N-methylpyrrolidine-3-carboxamide]
IC50 [2]: 501 nM

Cc1ccnc(Cn2c(-c3ccc(OCCN4CCNCC4=O)cc3Cl)nc3c(OC4(C)CC4)ncnc32)c1 [Example T498, 1-(2-(3-chloro-4-(6-(1-methylcyclopropoxy)-9-((4-methylpyridin-2-yl)methyl)-9H-purin-8-yl)phenoxy)ethyl)piperazin-2-one]
IC50 [2]: 316 nM

Cc1ccnc(Cn2c(-c3ccc(OCCN4CCNC(=O)C4)cc3Cl)nc3c(OC4(C)CC4)ncnc32)c1 [Example T499, 4-(2-(3-chloro-4-(6-(1-methylcyclopropoxy)-9-((4-methylpyridin-2-yl)methyl)-9H-purin-8-yl)phenoxy)ethyl)piperazin-2-one]
IC50 [2]: 316 nM

CNC(=O)N1CC[C@@H](Oc2ccc(-c3nc4c(OC5(C)CC5)ncnc4n3Cc3cc(C)ccn3)c(Cl)c2)C1 [Example T501, (R)-3-(3-chloro-4-(6-(1-methylcyclopropoxy)-9-((4-methylpyridin-2-yl)methyl)-9H-purin-8-yl)phenoxy)-N-methylpyrrolidine-1-carboxamide]
IC50 [2]: 794 nM

Cc1ccnc(Cn2c(-c3ccc(CC(=O)NCC(C)(C)O)cc3Cl)nc3c(OC4(C)CC4)ncnc32)c1 [Example T515, 2-(3-chloro-4-(6-(1-methylcyclopropoxy)-9-((4-methylpyridin-2-yl)methyl)-9H-purin-8-yl)phenyl)-N-(2-hydroxy-2-methylpropyl)acetamide]
IC50 [2]: 631 nM

Cc1ccnc(Cn2c(-c3ccc(OCC(=O)N[C@H](C)CCO)cc3Cl)nc3c(OC4(C)CC4)ncnc32)c1 [Example T516, (R)-2-(3-chloro-4-(6-(1-methylcyclopropoxy)-9-((4-methylpyridin-2-yl)methyl)-9H-purin-8-yl)phenoxy)-N-(4-hydroxybutan-2-yl)acetamide]
IC50 [2]: 200 nM

Cc1ccnc(Cn2c(-c3ccc(OCC(=O)NCC(C)(C)O)cc3Cl)nc3c(OC4(C)CC4)ncnc32)c1 [Example T517, 2-(3-chloro-4-(6-(1-methylcyclopropoxy)-9-((4-methylpyridin-2-yl)methyl)-9H-purin-8-yl)phenoxy)-N-(2-hydroxy-2-methylpropyl)acetamide]
IC50 [2]: 398 nM

CC[C@H](CO)NC(=O)COc1ccc(-c2nc3c(OC4(C)CC4)ncnc3n2Cc2cc(C)ccn2)c(Cl)c1 [Example T518, (R)-2-(3-chloro-4-(6-(1-methylcyclopropoxy)-9-((4-methylpyridin-2-yl)methyl)-9H-purin-8-yl)phenoxy)-N-(1-hydroxybutan-2-yl)acetamide]
IC50 [2]: 398 nM

Cc1ccnc(Cn2c(-c3ccc(OCC(=O)NC(C)(C)CO)cc3Cl)nc3c(OC4(C)CC4)ncnc32)c1 [Example T519, 2-(3-chloro-4-(6-(1-methylcyclopropoxy)-9-((4-methylpyridin-2-yl)methyl)-9H-purin-8-yl)phenoxy)-N-(1-hydroxy-2-methylpropan-2-yl)acetamide]
IC50 [2]: 316 nM

CC[C@@H](O)CNC(=O)COc1ccc(-c2nc3c(OC4(C)CC4)ncnc3n2Cc2cc(C)ccn2)c(Cl)c1 [Example T520, (R)-2-(3-chloro-4-(6-(1-methylcyclopropoxy)-9-((4-methylpyridin-2-yl)methyl)-9H-purin-8-yl)phenoxy)-N-(2-hydroxybutyl)acetamide]
IC50 [2]: 398 nM

C[C@@H]1CNCCN1CCOc1ccc(-c2nc3c(OC4(C)CC4)ncnc3n2Cc2cc(Cl)ccn2)c(Cl)c1 [Example T522, (R)-8-(2-chloro-4-(2-(2-methylpiperazin-1-yl)ethoxy)phenyl)-9-((4-chloropyridin-2-yl)methyl)-6-(1-methylcyclopropoxy)-9H-purine]
IC50 [2]: 251 nM

Cc1ccnc(Cn2c(-c3ccc(OCC(=O)N4CC[C@@H](C#N)C4)cc3Cl)nc3c(OC4(C)CC4)ncnc32)c1 [Example T538, (R)-1-(2-(3-chloro-4-(6-(1-methylcyclopropoxy)-9-((4-methylpyridin-2-yl)methyl)-9H-purin-8-yl)phenoxy)acetyl)pyrrolidine-3-carbonitrile]
IC50 [2]: 501 nM

Cc1ccnc(Cn2c(-c3ccc(OCC(=O)N4CCC[C@H]4C#N)cc3Cl)nc3c(OC4(C)CC4)ncnc32)c1 [Example T539, (S)-1-(2-(3-chloro-4-(6-(1-methylcyclopropoxy)-9-((4-methylpyridin-2-yl)methyl)-9H-purin-8-yl)phenoxy)acetyl)pyrrolidine-2-carbonitrile]
IC50 [2]: 316 nM

Source: patent US20250195530A1, “POLQ INHIBITORS” (ASTRAZENECA AB, priority 2022, published 2025)
